According to patent US12059400B2, “Medical compound” (VERA SALUS RICERCA S.R.L., priority 2017, dated 2024):

What was measured:
[1] = test system: human skin fibroblasts (WS1); experiment: Cell proliferation of normal cells, crystal violet method; format: cell-based; settings: at the indicated concentrations (not given); FIG. 17
Method: The compound according to the invention, and in particular the synthetic quercetin derivatives described and illustrated herein were investigated in vitro by using human tumour cells and assessing their impact on the tumour proliferative capacity, with regard to the tumours described above. In particular, the following human tumour cell lines were assessed experimentally: 1) HCT116, colon adenocarcinoma cells; 2) H1299, lung adenocarcinoma cells; 3) A375, melanoma cells, and 4) A431, squamous skin cell carcinoma; 5) 786-0, renal carcinoma cells; 6) PC3, prostate carcinoma cells; 7) BT549, mammary carcinoma cells; 8) CAL27, tongue carcinoma cells (belonging to the head-and-neck carcinomas); 9) HepG2, hepatocellular carcinoma cells; 10) PANC-1, pancreas carcinoma cells; 11) T24, bladder carcinoma cells; 12) OVCAR-3, ovarian carcinoma cells. In addition, a normal human cell line, WS1 (skin fibroblasts) was also treated with the novel synthetic compounds. Cell proliferation was quantified by the crystal violet method with a spectrophotometer. In short, after acquiring serial images (0, 24 and 48 hrs) with the EVOS XL Cell Imaging System microscope (Thermo Fisher Scientific), the cells imaged at 48 hrs were fixed with paraformaldehyde (4%) and stained with Crystal Violet (1%). Then, the specific absorbance (λ=590 nm) at 48 hrs was measured with a spectrophotometer (Infinite®200 PRO, Tecan). Data analysis was carried out by using ad-hoc Excel files for graphical representation and statistical processing (t-test). […] This tool allows cell growth to be monitored from electrical impedance-derived quantitative values (the so-called Cell Index) measured by tiny electrodes located at the base of the culture wells. Proliferation is monitored for several days (5-7) by setting a Cell Index per minute measure on the instrument. The data are analysed by processing various parameters calculated by the dedicated software, such as the cell duplication time, the slope and the Max Cell Index.

SCC cells (A431) = experiment: Cell proliferation, crystal violet method; format: cell-based, human; settings: 90 μM; FIG. 2a, 2b
Method: (§1) The compound according to the invention, and in particular the synthetic quercetin derivatives described and illustrated herein were investigated in vitro by using human tumour cells and assessing their impact on the tumour proliferative capacity, with regard to the tumours described above. In particular, the following human tumour cell lines were assessed experimentally: 1) HCT116, colon adenocarcinoma cells; 2) H1299, lung adenocarcinoma cells; 3) A375, melanoma cells, and 4) A431, squamous skin cell carcinoma; 5) 786-0, renal carcinoma cells; 6) PC3, prostate carcinoma cells; 7) BT549, mammary carcinoma cells; 8) CAL27, tongue carcinoma cells (belonging to the head-and-neck carcinomas); 9) HepG2, hepatocellular carcinoma cells; 10) PANC-1, pancreas carcinoma cells; 11) T24, bladder carcinoma cells; 12) OVCAR-3, ovarian carcinoma cells. In addition, a normal human cell line, WS1 (skin fibroblasts) was also treated with the novel synthetic compounds. Cell proliferation was quantified by the crystal violet method with a spectrophotometer. In short, after acquiring serial images (0, 24 and 48 hrs) with the EVOS XL Cell Imaging System microscope (Thermo Fisher Scientific), the cells imaged at 48 hrs were fixed with paraformaldehyde (4%) and stained with Crystal Violet (1%). Then, the specific absorbance (λ=590 nm) at 48 hrs was measured with a spectrophotometer (Infinite®200 PRO, Tecan). Data analysis was carried out by using ad-hoc Excel files for graphical representation and statistical processing (t-test). Moreover, the results obtained with Crystal Violet were confirmed by using another cell proliferation assessment method based on the real time cellular analyzer XCELLigence RTCA DP (ACEA Biosciences, Inc.). This tool allows cell growth to be monitored from electrical impedance-derived quantitative values (the so-called Cell Index) measured by tiny electrodes located at the base of the culture wells. Proliferation is monitored for several days (5-7) by setting a Cell Index per minute measure on the instrument. The data are analysed by processing various parameters calculated by the dedicated software, such as the cell duplication time, the slope and the Max Cell Index. […] Cell proliferation was quantitated spectrophotometrically by the crystal violet method.

[2] = test system: human renal carcinoma cells (786-0); experiment: Cell proliferation, crystal violet method; format: cell-based; settings: 80 μM; FIG. 4a, 4b
Method: as §1

[3] = test system: human prostate carcinoma cells (PC3); experiment: Cell proliferation, crystal violet method; format: cell-based; settings: 80 μM; FIG. 5a, 5b
Method: as §1

[4] = test system: human bladder carcinoma cells (T24); experiment: Cell proliferation, crystal violet method; format: cell-based; settings: 80 μM; FIG. 10a, 10b
Method: as §1

[5] = test system: human pancreatic carcinoma cells (PANC-1); experiment: Cell proliferation, crystal violet method; format: cell-based; settings: 80 μM; FIG. 9a, 9b
Method: as §1

[6] = test system: human ovarian carcinoma cells (OVCAR-3); experiment: Cell proliferation, crystal violet method; format: cell-based; settings: 60 μM; FIG. 11a, 11b
Method: The compound according to the invention, and in particular the synthetic quercetin derivatives described and illustrated herein were investigated in vitro by using human tumour cells and assessing their impact on the tumour proliferative capacity, with regard to the tumours described above. In particular, the following human tumour cell lines were assessed experimentally: 1) HCT116, colon adenocarcinoma cells; 2) H1299, lung adenocarcinoma cells; 3) A375, melanoma cells, and 4) A431, squamous skin cell carcinoma; 5) 786-0, renal carcinoma cells; 6) PC3, prostate carcinoma cells; 7) BT549, mammary carcinoma cells; 8) CAL27, tongue carcinoma cells (belonging to the head-and-neck carcinomas); 9) HepG2, hepatocellular carcinoma cells; 10) PANC-1, pancreas carcinoma cells; 11) T24, bladder carcinoma cells; 12) OVCAR-3, ovarian carcinoma cells. In addition, a normal human cell line, WS1 (skin fibroblasts) was also treated with the novel synthetic compounds.
Cell proliferation was quantified by the crystal violet method with a spectrophotometer. In short, after acquiring serial images (0, 24 and 48 hrs) with the EVOS XL Cell Imaging System microscope (Thermo Fisher Scientific), the cells imaged at 48 hrs were fixed with paraformaldehyde (4%) and stained with Crystal Violet (1%). Then, the specific absorbance (λ=590 nm) at 48 hrs was measured with a spectrophotometer (Infinite®200 PRO, Tecan). Data analysis was carried out by using ad-hoc Excel files for graphical representation and statistical processing (t-test). Moreover, the results obtained with Crystal Violet were confirmed by using another cell proliferation assessment method based on the real time cellular analyzer XCELLigence RTCA DP (ACEA Biosciences, Inc.). This tool allows cell growth to be monitored from electrical impedance-derived quantitative values (the so-called Cell Index) measured by tiny electrodes located at the base of the culture wells. Proliferation is monitored for several days (5-7) by setting a Cell Index per minute measure on the instrument. The data are analysed by processing various parameters calculated by the dedicated software, such as the cell duplication time, the slope and the Max Cell Index.
Cell proliferation was quantitated spectrophotometrically by the crystal violet method.

[7] = test system: human colon carcinoma cells (HCT116); experiment: Intracellular ROS levels, DCFH2-DA probe; format: cell-based; settings: 2 hrs of treatment; at the respective anti-proliferative IC50s; DCF fluorescence in A.U.; FIG. 22 left
Method: Intracellular ROS levels were measured in tumour cells by using the probe 2,7-dichlorodihydrofluorescein diacetate (DCFH2-DA) and a fluorescence spectrophotometer. DCFH2-DA diffuses readily through the cell membrane into the cytosolic space of the cell where it is hydrolyzed by intracellular esterases into the non-permeable DCFH2 product. DCFH2 oxidation by intracellular ROS (mainly H2O2, HO·, ROO·, NO· and ONOO) results in the production of intracellular fluorescent DCF, whose concentration is directly proportional to the levels of ROS in the cell. […] All the experiments were repeated at least 3 times. Data analysis was carried out with GraphPad Prism 6 for graphical representation and statistical processing (1-way ANOVA test).

[8] = test system: human melanoma cells (A375); experiment: Cell cycle progression, propidium iodide method, cytofluorimeter; format: cell-based; settings: 24 hrs; at the respective anti-proliferative IC50s; FIG. 19
Method: Progression through the tumour cell cycle was assessed by the propidium iodide method and quantification of the cell DNA content with a cytofluorimeter. Briefly, after treatment (in duplicate) with the test compounds (24 hrs), the tumour cells were washed (with PBS), detached with trypsin-EDTA and pelleted by centrifugation (125 g for 6 min). The cells were then fixed in ethanol (70%) and stored in the freezer (−20° C.) for 1-3 days. After further washing (PBS) and treatment with RNAse (50 ug/ml), the cells were contacted (on ice in the dark; 30 min) with propidium iodide (50 μg/ml). FL2 and FL3 cytofluorimeter readings analysed approximately 50,000 cells (1 μl/second) per sample. Statistical analysis and graphical representation were performed by using t-tests and preset Excel property files.

O=c1cc(-c2ccc(O)cc2)oc2cc(O)cc(O)c12 [apigenin]
proliferation of normal human skin fibroblasts (WS1) vs vehicle control [1]: significantly inhibits

O=c1c(O)c(-c2ccc(O)c(O)c2)oc2cc(O)cc(O)c12 [quercetin, Quercetin, reference compound]
A431 cell growth vs vehicle control (SCC cells (A431)): has no effect
786-0 cell growth vs vehicle control [2]: has no effect
PC3 cell growth vs vehicle control [3]: modest anti-proliferative effects
T24 cell growth vs vehicle control [4]: has no effect
PANC-1 cell growth vs vehicle control [5]: has no effect
OVCAR-3 cell growth vs vehicle control [6]: has no effect
proliferation of normal human skin fibroblasts (WS1) vs vehicle control [1]: do not disrupt
intracellular ROS levels in HCT116 cells [7]: has no effect
halt of A375 tumour cells in S and/or G2 of the cell cycle [8]: significantly halt
